Measurements: patent US9199945B2, “Cycloalkyl-substituted pyrimidinedione compounds” (MyoKardia, Inc., priority 2013, dated 2015)
Like-named read-outs stand apart in the source and are kept apart here.

Legend:
bovine cardiac myosin = molecular target: T1, bovine cardiac myosin (Bos taurus, UniProt Q9BE39); assay: Myosin inhibition assay (PK/LDH-coupled ATPase, bovine cardiac myofibrils); assay type: biochemical
T1 construct: The source of cardiac myosin was from bovine heart in the form of skinned myofibrils; from tissue; host or cells: bovine heart (skinned myofibrils)
Description: Small molecule agents were assessed for their ability to inhibit the enzymatic activity of bovine cardiac myosin using a biochemical assay that couples the release of ADP (adenosine diphosphate) from cardiac myosin to an enzymatic coupling system consisting of pyruvate kinase and lactate dehydrogenase (PK/LDH) and monitoring the absorbance decrease of NADH (at 340 nm) as a function of time. PK converts ADP to ATP (adenosine triphosphate) by converting PEP (phosphoenolpyruvate) to pyruvate. Pyruvate is then converted to lactate by LDH by converting NADH (nicotinamide adenine dinucleotide) to NAD (oxidized nicotinamide adenine dinucleotide). The source of cardiac myosin was from bovine heart in the form of skinned myofibrils. Prior to testing small molecule agents, the bovine myofibrils were assessed for their calcium responsiveness and the calcium concentration that achieves either a 50% (pCa50) or 75% (pCa75) activation of the myofibril system was chosen as the final condition for assessing the inhibitory activity of the small molecule agents. All enzymatic activity was measured in a buffered solution containing 12 mM PIPES (piperazine-N,N′-bis(2-ethanesulfonic acid), 2 mM magnesium chloride at pH 6.8 (PM12 buffer). Final assay conditions were 1 mg/mL of bovine cardiac myofibrils, 0.4 mM PK/LDH, 50 uM ATP, 0.1 mg/mL BSA (bovine serum albumin), 10 ppm antifoam, 1 mM DTT, 0.5 mM NADH, 1.5 mM PEP at the desired free calcium concentration required to achieve either 50% or 75% activation of the myofibrils.
A dilution series of compound was created in DMSO such that the final desired concentration of compound would be achieved in a volume of 100 μL with a fixed DMSO concentration of 2% (v/v). Typically 2 μL of the dilution series were added to 96 well plate to achieve an 8 or 12 point dose response. Following the addition of 50 μL of a solution containing bovine cardiac myofibrils, PK/LDH and a solution of calcium (that achieved the desired activation), the enzymatic reaction was started with the addition of 50 μL of a solution containing ATP, PEP and NADH. The reaction progress was followed in a Molecular Devices M5e plate reader at ambient temperature using clear half area plates. The plate reader was configured to read absorbance at 340 nm in kinetics mode for 15 minutes. Data were recorded as the slope of the absorbance response to time. The slopes of the absorbance response as a function of time were normalized to slopes on the plate containing DMSO. This normalized rate was then plotted as a function of small molecule concentration and the data was fitted to a four-parameter fit using GraphPad Prism. The midpoint of this plot is the IC50 and is the concentration at which fifty percent of the total response is inhibited.

[1] = test system: adult rat ventricular myocytes; assay: Cardiomyocyte contractility assay (fractional shortening, IonOptix edge detection); assay type: cell-based; settings: Ventricular myocyte, 1 Hz pacing; for inhibition at 1 µM: 1.0 uM compound
Description: Contractility of adult rat ventricular myocytes is determined by edge detection with an IonOptix contractility system. Aliquots of myocytes in Tyrode buffer (137 mM NaCl, 3.7 mM KCl, 0.5 mM MgCl2, 1.5 mM CaCl2, 4 mM HEPES, 11 mM glucose) are placed in a perfusion chamber (Series 20 RC-27NE; Warner Instruments), allowed to adhere to the coverslip, and then perfused with 37° C. Tyrode buffer. Myocytes are filed stimulated at 1 Hz and 10V. Only myocytes with clear striations, quiescent prior to pacing, with a cell length of 120-180 microns, a basal fractional shortening equal to 3-8% of the cell length, and a contraction velocity greater than 100 microns per second are used for contractility experiments. To determine the response to compounds, myocytes are first perfused for 60 seconds with Tyrodes buffer followed by 5 minutes of compound and a 140 second washout with Tyrodes buffer. Data is continuously recorded using IonOptix software. Contractility data is analyzed using lonwizard software (IonOptix). For each cell, 10-20 contractility transients were averaged and compared under basal (no compound) and compound-treated conditions. Compound activity is measured by effects on fractional shortening (FS), where fractional shortening is the ratio of the peak length of the cell at contraction divided by the basal cell length normalized to 100% for an untreated cell.

[2] = calcium concentration giving 75% activation (pCa75), read-out: Biochemical Activity (pCa75)
[3] = calcium concentration giving 50% activation (pCa50), read-out: Biochemical Activity (pCa50)

T1 sequence (Q9BE39 whole entry): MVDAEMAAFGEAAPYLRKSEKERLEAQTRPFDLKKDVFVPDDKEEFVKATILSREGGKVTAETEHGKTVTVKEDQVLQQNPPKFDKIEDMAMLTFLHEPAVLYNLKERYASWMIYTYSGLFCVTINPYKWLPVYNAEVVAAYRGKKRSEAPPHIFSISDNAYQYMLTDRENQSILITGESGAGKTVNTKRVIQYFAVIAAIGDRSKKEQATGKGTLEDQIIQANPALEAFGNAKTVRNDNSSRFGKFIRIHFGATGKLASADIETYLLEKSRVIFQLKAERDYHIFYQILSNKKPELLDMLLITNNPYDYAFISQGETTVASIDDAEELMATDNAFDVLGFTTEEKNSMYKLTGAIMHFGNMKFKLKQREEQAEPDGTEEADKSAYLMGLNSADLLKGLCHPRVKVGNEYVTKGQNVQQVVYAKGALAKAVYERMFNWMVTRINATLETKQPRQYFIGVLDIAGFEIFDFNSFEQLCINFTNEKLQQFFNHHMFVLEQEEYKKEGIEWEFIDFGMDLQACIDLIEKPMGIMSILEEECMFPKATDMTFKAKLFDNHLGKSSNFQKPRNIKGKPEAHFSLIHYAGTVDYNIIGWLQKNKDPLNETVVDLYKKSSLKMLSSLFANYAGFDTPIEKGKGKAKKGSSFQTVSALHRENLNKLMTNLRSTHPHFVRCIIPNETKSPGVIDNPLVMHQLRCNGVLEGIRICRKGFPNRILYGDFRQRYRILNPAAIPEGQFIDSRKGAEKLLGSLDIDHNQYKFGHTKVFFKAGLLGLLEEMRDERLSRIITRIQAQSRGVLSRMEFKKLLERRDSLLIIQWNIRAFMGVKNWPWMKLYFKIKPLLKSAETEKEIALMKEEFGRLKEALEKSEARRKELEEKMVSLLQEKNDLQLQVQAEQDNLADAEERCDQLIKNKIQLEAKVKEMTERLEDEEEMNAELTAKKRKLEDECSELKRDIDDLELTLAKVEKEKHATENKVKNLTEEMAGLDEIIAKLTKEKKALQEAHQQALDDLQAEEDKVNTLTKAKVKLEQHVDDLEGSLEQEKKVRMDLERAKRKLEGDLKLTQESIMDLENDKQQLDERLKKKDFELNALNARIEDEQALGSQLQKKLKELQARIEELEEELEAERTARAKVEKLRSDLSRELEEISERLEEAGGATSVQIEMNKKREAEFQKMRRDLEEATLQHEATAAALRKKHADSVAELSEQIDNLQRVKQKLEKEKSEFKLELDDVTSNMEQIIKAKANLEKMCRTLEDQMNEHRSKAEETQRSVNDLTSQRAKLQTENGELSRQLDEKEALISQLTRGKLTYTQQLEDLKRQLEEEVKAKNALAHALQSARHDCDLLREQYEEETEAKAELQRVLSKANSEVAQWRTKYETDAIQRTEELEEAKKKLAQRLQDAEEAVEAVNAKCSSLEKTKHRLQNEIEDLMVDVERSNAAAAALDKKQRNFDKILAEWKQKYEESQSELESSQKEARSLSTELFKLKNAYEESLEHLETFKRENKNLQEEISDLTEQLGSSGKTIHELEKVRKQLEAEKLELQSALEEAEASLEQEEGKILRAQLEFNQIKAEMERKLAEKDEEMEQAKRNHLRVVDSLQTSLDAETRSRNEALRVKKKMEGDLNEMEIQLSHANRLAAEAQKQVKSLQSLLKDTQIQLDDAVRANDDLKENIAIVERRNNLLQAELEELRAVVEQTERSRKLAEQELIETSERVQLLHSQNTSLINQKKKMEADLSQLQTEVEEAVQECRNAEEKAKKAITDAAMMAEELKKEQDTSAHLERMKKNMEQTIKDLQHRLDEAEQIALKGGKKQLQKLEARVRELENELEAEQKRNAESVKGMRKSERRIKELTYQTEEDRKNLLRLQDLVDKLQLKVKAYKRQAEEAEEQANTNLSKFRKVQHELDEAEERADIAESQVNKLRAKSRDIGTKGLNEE
T1 sequence (P85100 whole entry partner): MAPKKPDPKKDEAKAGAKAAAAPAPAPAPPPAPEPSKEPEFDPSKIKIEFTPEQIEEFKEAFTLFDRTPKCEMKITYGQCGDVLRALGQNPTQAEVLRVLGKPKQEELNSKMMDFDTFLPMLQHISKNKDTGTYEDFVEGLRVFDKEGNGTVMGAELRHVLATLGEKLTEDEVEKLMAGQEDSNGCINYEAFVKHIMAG
T1 sequence (Q3SZE5 whole entry partner): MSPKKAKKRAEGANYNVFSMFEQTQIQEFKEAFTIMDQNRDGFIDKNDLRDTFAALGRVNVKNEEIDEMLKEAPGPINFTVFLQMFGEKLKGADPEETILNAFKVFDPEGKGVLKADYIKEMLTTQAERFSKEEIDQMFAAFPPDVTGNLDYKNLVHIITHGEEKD

Row | SMILES | IC50 (bovine cardiac myosin; [2]) [µM] | further results
1 | CC(C)n1c(=O)cc(NCC2CCC2)[nH]c1=O [Compound 7, 6-((cyclobutylmethyl)amino)-3-isopropylpyrimidine-2,4(1H,3H)-dione] | > 15 | 
2 | C[C@@H](CC1CCC(F)(F)CC1)Nc1cc(=O)n(-c2cc(F)cc(F)c2)c(=O)[nH]1 [Compound 11, (S)-6-((1-(4,4-difluorocyclohexyl)propan-2-yl)amino)-3-(3,5-difluorophenyl)pyrimidine-2,4(1H,3H)-dione] |  | IC50 (bovine cardiac myosin; [3]): < 1 µM
3 | CC(C)n1c(=O)[nH]c(N[C@@H](C)C2CCC(F)(F)CC2)c(F)c1=O [Compound 5, (S)-6-((1-(4,4-difluorocyclohexyl)ethyl)amino)-5-fluoro-3-isopropylpyrimidine-2,4(1H,3H)-dione] | < 1 | inhibition at 1 µM [1]: 33 to 66%
4 | C[C@@H](CC1CC(F)(F)C1)Nc1cc(=O)n(-c2cc(F)cc(F)c2)c(=O)[nH]1 [Compound 12, (S)-6-((1-(3,3-difluorocyclobutyl)propan-2-yl)amino)-3-(3,5-difluorophenyl)pyrimidine-2,4(1H,3H)-dione] |  | IC50 (bovine cardiac myosin; [3]): 1 to 15 µM
5 | CC(C)n1c(=O)cc(N[C@@H](C)CC2CC(F)(F)C2)[nH]c1=O [Compound 10, (S)-6-((1-(3,3-difluorocyclobutyl)propan-2-yl)amino)-3-isopropylpyrimidine-2,4(1H,3H)-dione] | 1 to 15 | 
6 | CC(C)n1c(=O)cc(NCC2CCCCCC2)[nH]c1=O [Compound 8, 6-((cycloheptylmethyl)amino)-3-isopropylpyrimidine-2,4(1H,3H)-dione] | < 1 | 
7 | CC(C)n1c(=O)cc(N[C@@H](C)CC2CCC(F)(F)CC2)[nH]c1=O [Compound 3, (S)-6-((1-(4,4-Difluorocyclohexyl)propan-2-yl)amino)-3-isopropylpyrimidine-2,4(1H,3H)-dione] | < 1 | inhibition at 0.3 µM ([1]; 0.3 uM compound): > 66%
8 | CC(C)n1c(=O)cc(NCCC2CCOCC2)[nH]c1=O [Compound 13, 3-isopropyl-6-((2-(tetrahydro-2H-pyran-4-yl)ethyl)amino) pyrimidine-2,4(1H,3H)-dione] | > 15 | 

More lines, main results first:

Row | IC50 (bovine cardiac myosin; [2]) [µM] | SMILES | further results
9 | 1 to 15 | CC(C)n1c(=O)cc(NCC2CCCCC2)[nH]c1=O [Compound 1, 6-((cyclohexylmethyl)amino)-3-isopropylpyrimidine-2,4(1H,3H)-dione] | 
10 | < 1 | CC(C)n1c(=O)cc(N[C@@H](C)C2CCC(F)(F)CC2)[nH]c1=O [Compound 9, (S)-6-((1-(4,4-difluorocyclohexyl)ethyl)amino)-3-isopropylpyrimidine-2,4(1H,3H)-dione] | inhibition at 1 µM [1]: > 66%
11 | 1 to 15 | C[C@H](Nc1cc(=O)n(C2CCOCC2)c(=O)[nH]1)C1CCC(F)(F)CC1 [Compound 4, (S)-6-((1-(4,4-difluorocyclohexyl)ethyl)amino)-3-(tetrahydro-2H-pyran-4-yl)pyrimidine-2,4(1H,3H)-dione] | 
12 | < 1 | C[C@H](Nc1cc(=O)n(C2CCN(S(C)(=O)=O)CC2)c(=O)[nH]1)C1CCCCC1 [Compound 15, (S)-6-((1-cyclohexylethyl)amino)-3-(1-(methylsulfonyl)piperidin-4-yl)pyrimidine-2,4(1H,3H)-dione] | 
13 | > 15 | CC(C)n1c(=O)cc(NCC2CCCC2)[nH]c1=O [Compound 2, 6-((Cyclopentylmethyl)amino)-3-isopropylpyrimidine-2,4(1H,3H)-dione] | 
14 | 1 to 15 | CC(C)n1c(=O)cc(N[C@@H](C)CC2CCOCC2)[nH]c1=O [Compound 14, (S)-3-isopropyl-6-((1-(tetrahydro-2H-pyran-4-yl)propan-2-yl)amino)pyrimidine-2,4(1H,3H)-dione] | 
15 | < 1 | CC(C)n1c(=O)cc(N[C@@H](C)C2CCCCC2)[nH]c1=O [Compound 6, (S)-6-((1-cyclohexylethyl)amino)-3-isopropylpyrimidine-2,4(1H,3H)-dione] | 
